Target: T1, human GLP-1 receptor (Homo sapiens, UniProt P43220)
T1 construct: expressed in transfected cells
Test: GLP-1R cAMP Assay
Format: cell-based
Details: cAMP accumulation in CHO cells stably overexpressing the human GLP-1 receptor; 30 min treatment; HitHunter cAMP kit; read-out: EC50
Method in brief: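 CHO cells stably overexpressing human GLP-1R, 10,000 cells/well, treated with compound in 20-point dose response in triplicate for 30 min. cAMP accumulation read by enzyme-complementation luminescence after lysis and overnight incubation; dose-response curves fitted.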

T1 sequence (P43220 24-463): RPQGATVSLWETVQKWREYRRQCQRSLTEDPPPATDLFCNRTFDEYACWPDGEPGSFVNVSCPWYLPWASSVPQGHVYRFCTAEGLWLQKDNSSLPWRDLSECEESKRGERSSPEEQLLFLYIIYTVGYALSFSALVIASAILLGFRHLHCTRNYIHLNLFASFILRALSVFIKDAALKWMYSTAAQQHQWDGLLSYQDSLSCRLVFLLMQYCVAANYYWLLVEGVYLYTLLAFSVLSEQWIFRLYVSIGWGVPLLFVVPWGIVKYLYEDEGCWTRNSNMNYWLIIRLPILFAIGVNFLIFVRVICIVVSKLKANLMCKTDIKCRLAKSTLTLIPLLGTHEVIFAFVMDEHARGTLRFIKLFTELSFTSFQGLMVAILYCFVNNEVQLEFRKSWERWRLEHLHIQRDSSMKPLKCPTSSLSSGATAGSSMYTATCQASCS

Structure (SMILES) | EC50
Cc1ccc(N(C)c2cccc(CC3=CCN(Cc4nc5ccc(C(=O)O)cc5n4C[C@@H]4CCO4)CC3)c2)c(Cl)c1 [Compound 117, 2-{[4-({3-[(2-chloro-4-methylphenyl)(methyl)amino]phenyl}methyl)-1,2,3,6-tetrahydropyridin-1-yl]methyl}-1-{[(2S)-oxetan-2-yl]methyl}-1H-1,3-benzodiazole-6-carboxylic acid] | 50 to 500 nM
N#Cc1ccc(OCc2ncc(F)c(OC3CCN(Cc4nc5ccc(C(=O)O)cc5n4C[C@@H]4CCO4)CC3)n2)c(F)c1 [Compound 374] | < 50 nM
N#CCC1(Cn2c(CN3CCC(Oc4ccnc(COc5ccc(F)cc5Cl)n4)CC3)nc3ccc(C(=O)O)cc32)CC1 [Compound 325] | < 50 nM
CCn1cncc1Cn1c(CN2CCC(Cc3cnc(COc4ccc(Cl)cc4Cl)o3)CC2)nc2ccc(C(=O)O)cc21 [Compound 124, 2-{[4-({2-[(2,4-dichlorophenoxy)methyl]-1,3-oxazol-5-yl}methyl)piperidin-1-yl]methyl}-1-[(1-ethyl-1H-imidazol-5-yl)methyl]-1H-1,3-benzodiazole-6-carboxylic acid] | < 50 nM
O=C(O)c1ccc2nc(CN3CCC(Oc4ccnc(COc5ccc(Cl)cc5CF)c4)CC3)n(C[C@@H]3CCO3)c2c1 [Example 299, (S)-2-((4-((2-((4-Chloro-2-(fluoromethyl)phenoxy)methyl)pyridin-4-yl)oxy)piperidin-1-yl)methyl)-1-(oxetan-2-ylmethyl)-1H-benzo[d]imidazole-6-carboxylic acid] | < 50 nM
CCn1cncc1Cn1c(CN2CCC(Oc3cccc(COc4ccc(Cl)cc4F)c3)CC2)nc2ccc(C(=O)O)cc21 [Compound 231, 2-[(4-{3-[(4-chloro-2-fluorophenoxy)methyl]phenoxy}piperidin-1-yl)methyl]-1-[(1-ethyl-1H-imidazol-5-yl)methyl]-1H-1,3-benzodiazole-6-carboxylic acid] | < 50 nM
O=C(O)c1ccc2nc(CN3CCN(C(=O)c4cccc(Oc5ccc(F)cc5)c4)CC3)n(C[C@@H]3CCO3)c2c1 [Compound 13, 2-({4-[3-(4-fluorophenoxy)benzoyl]piperazin-1-yl}methyl)-1-{[(2S)-oxetan-2-yl]methyl}-1H-1,3-benzodiazole-6-carboxylic acid] | > 500 nM
N#CCC1(Cn2c(CN3CCC(Oc4ccnc(COc5ccc(Cl)cc5Cl)n4)CC3)nc3c(F)cc(C(=O)O)cc32)CC1 [Compound 341] | < 50 nM
Cc1cccc(Oc2ccc(C(=O)N3CCN(Cc4nc5ccc(C(=O)O)cc5n4C[C@@H]4CCO4)CC3)cc2)c1 [Compound 21, 2-({4-[4-(3-methylphenoxy)benzoyl]piperazin-1-yl}methyl)-1-{[(2S)-oxetan-2-yl]methyl}-1H-1,3-benzodiazole-6-carboxylic acid] | > 500 nM
O=C(O)c1ccc2nc(CN3CCC(Oc4ccnc(COc5ccc(Cl)cc5Cl)c4)CC3)n(C[C@@H]3CCO3)c2c1 [Compound 168, 2-{[4-({2-[(2,4-dichlorophenoxy)methyl]pyridin-4-yl}oxy)piperidin-1-yl]methyl}-1-{[(2S)-oxetan-2-yl]methyl}-1H-1,3-benzodiazole-6-carboxylic acid] | < 50 nM
N#Cc1cc(F)ccc1OCc1cccc(CC2CCN(Cc3nc4ccc(C(=O)O)cc4n3C[C@@H]3CCO3)CC2)c1 [Compound 187, 2-{[4-({3-[(2-cyano-4-fluorophenoxy)methyl]phenyl}methyl)piperidin-1-yl]methyl}-1-{[(2S)-oxetan-2-yl]methyl}-1H-1,3-benzodiazole-6-carboxylic acid] | < 50 nM
Cc1cc(C(C)C)ccc1Oc1cccc(C(=O)N2CCN(Cc3nc4ccc(C(=O)O)cc4n3C[C@@H]3CCO3)CC2)c1 [Example 89, (S)-2-((4-(3-(4-Isopropyl-2-methylphenoxy)benzoyl)piperazin-1-yl)methyl)-1-(oxetan-2-ylmethyl)-1H-benzo[d]imidazole-6-carboxylic acid] | 50 to 500 nM
CCn1cncc1Cn1c(CN2CCC(C(F)(F)c3cccc(COc4ccc(C)cc4Cl)c3)CC2)nc2ccc(C(=O)O)cc21 [Example 132, 2-((4-((3-((2-Chloro-4-methylphenoxy)methyl)phenyl)difluoromethyl)piperidin-1-yl)methyl)-1-((1-ethyl-1H-imidazol-5-yl)methyl)-1H-benzo[d]imidazole-6-carboxylic acid] | < 50 nM
O=C(O)c1ccc2nc(CN3CCC(Oc4ccnc(COc5ccc(Cl)cc5Cl)c4)CC3)n(CC3CNC3)c2c1 [Compound 280, 1-[(azetidin-3-yl)methyl]-2-{[4-({2-[(2,4-dichlorophenoxy)methyl]pyridin-4-yl}oxy)piperidin-1-yl]methyl}-1H-1,3-benzodiazole-6-carboxylic acid] | < 50 nM
O=C(O)c1cc(F)c2nc(CN3CCC(Oc4ccnc(COc5ccc(Cl)cc5F)n4)CC3)n(C[C@@H]3CCO3)c2c1 [Compound 315] | < 50 nM
N#Cc1ccccc1Oc1ccccc1C(=O)N1CCN(Cc2nc3ccc(C(=O)O)cc3n2C[C@@H]2CCO2)CC1 [Compound 4, 2-({4-[2-(2-cyanophenoxy)benzoyl]piperazin-1-yl}methyl)-1-{[(2S)-oxetan-2-yl]methyl}-1H-1,3-benzodiazole-6-carboxylic acid] | > 500 nM
CCn1cncc1Cn1c(CN2CCC(Oc3cc(COc4ccc(Cl)cc4Cl)ccn3)CC2)nc2ccc(C(=O)O)cc21 [Compound 179, 2-{[4-({4-[(2,4-dichlorophenoxy)methyl]pyridin-2-yl}oxy)piperidin-1-yl]methyl}-1-[(1-ethyl-1H-imidazol-5-yl)methyl]-1H-1,3-benzodiazole-6-carboxylic acid] | < 50 nM
O=C(O)c1ccc2nc(CN3CCC(Oc4ccnc(COc5ccc(Cl)cc5F)n4)CC3)n(C[C@@H]3CCO3)c2c1 [Compound 296, 2-{[4-({2-[(4-chloro-2-fluorophenoxy)methyl]pyrimidin-4-yl}oxy)piperidin-1-yl]methyl}-1-{[(2S)-oxetan-2-yl]methyl}-1H-1,3-benzodiazole-6-carboxylic acid] | < 50 nM
Cc1ccc(OCc2cccc(C(=O)N3CCN(Cc4nc5ccc(C(=O)O)cc5n4C[C@@H]4CCO4)CC3)c2)c(Cl)c1 [Compound 64, 2-[(4-{3-[(2-chloro-4-methylphenoxy)methyl]benzoyl}piperazin-1-yl)methyl]-1-{[(2S)-oxetan-2-yl]methyl}-1H-1,3-benzodiazole-6-carboxylic acid] | 50 to 500 nM
O=C(O)c1ccc2nc(CN3CCC(Oc4ccnc(COc5ccc(F)cc5Cl)c4)CC3)n(C[C@@H]3CCO3)c2c1 [Example 220, (S)-2-((4-((2-((2-Chloro-4-fluorophenoxy)methyl)pyridin-4-yl)oxy)piperidin-1-yl)methyl)-1-(oxetan-2-ylmethyl)-1H-benzo[d]imidazole-6-carboxylic acid] | < 50 nM
Cc1c(Cl)cccc1OCc1ccc(C(=O)N2CCN(Cc3nc4ccc(C(=O)O)cc4n3C[C@@H]3CCO3)CC2)o1 [Example 19, (S)-2-((4-(5-((3-Chloro-2-methylphenoxy)methyl)furan-2-carbonyl)piperazin-1-yl)methyl)-1-(oxetan-2-ylmethyl)-1H-benzo[d]imidazole-6-carboxylic acid] | 50 to 500 nM
O=C(O)c1ccc2nc(CN3CCc4[nH]c5ccc(OC(F)(F)F)cc5c4C3)n(C[C@@H]3CCO3)c2c1 [Compound 53, 1-{[(2S)-oxetan-2-yl]methyl}-2-{[8-(trifluoromethoxy)-1H,2H,3H,4H,5H-pyrido[4,3-b]indol-2-yl]methyl}-1H-1,3-benzodiazole-6-carboxylic acid] | > 500 nM

From patent US20230089073A1 (Carmot Therapeutics, Inc., priority 2021, published 2023)
